Measured values: US10525041B2, “Fluoroalkyl-substituted aryltriazole derivatives and uses thereof” (BAYER PHARMA AKTIENGESELLSCHAFT, priority 2016, dated 2020)

Key:
human V1a receptor = target: T1, human V1a receptor (Homo sapiens, UniProt P37288); test: Cellular in vitro assay for vasopressin receptor activity, V1a cell line (aequorin luminescence); format: cell-based; conditions: for IC50: CHO cell line transfected with human V1a receptor, agonist [Arg8]-vasopressin at EC50 concentration, read-out: IC50hV1a; for ratio IC50 hV2/hV1a: ratio of the IC50 on human V2 to the IC50 on human V1a
T1 construct: expressed in transfected cells; host or cells: CHO K1 (ATCC), also stably transfected with a modified aequorin
Summary of the method: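 CHO K1 cells stably expressing human V1a receptor with aequorin photoprotein, loaded overnight with coelenterazine. Compounds preincubated 10 min at various concentrations, then challenged with [Arg^8]-vasopressin at EC50 concentration. Calcium-driven luminescence read immediately; IC50 values derived.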

human V2 receptor = target: T2, human V2 receptor (Homo sapiens, UniProt P30518); test: Cellular in vitro assay for vasopressin receptor activity, V2 cell line (CRE-luciferase); format: cell-based; conditions: CHO cell line transfected with human V2 receptor; agonist [Arg8]-vasopressin at EC50 concentration, 3 hours; read-out: IC50hV2
T2 construct: expressed in transfected cells; host or cells: CHO K1 (ATCC) line expressing firefly luciferase under a CRE-responsive promoter
T2 sequence (P30518 whole entry): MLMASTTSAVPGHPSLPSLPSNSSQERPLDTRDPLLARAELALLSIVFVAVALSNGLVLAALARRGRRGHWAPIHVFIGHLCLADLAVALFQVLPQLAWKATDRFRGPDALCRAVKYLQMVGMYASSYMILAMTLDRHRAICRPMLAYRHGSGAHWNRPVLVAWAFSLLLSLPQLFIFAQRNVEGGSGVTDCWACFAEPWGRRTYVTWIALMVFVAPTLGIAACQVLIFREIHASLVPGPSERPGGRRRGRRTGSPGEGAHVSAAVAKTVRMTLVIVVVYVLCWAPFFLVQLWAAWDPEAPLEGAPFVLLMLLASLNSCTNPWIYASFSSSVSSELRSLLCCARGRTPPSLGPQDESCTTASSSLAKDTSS

T1 sequence (P37288 whole entry): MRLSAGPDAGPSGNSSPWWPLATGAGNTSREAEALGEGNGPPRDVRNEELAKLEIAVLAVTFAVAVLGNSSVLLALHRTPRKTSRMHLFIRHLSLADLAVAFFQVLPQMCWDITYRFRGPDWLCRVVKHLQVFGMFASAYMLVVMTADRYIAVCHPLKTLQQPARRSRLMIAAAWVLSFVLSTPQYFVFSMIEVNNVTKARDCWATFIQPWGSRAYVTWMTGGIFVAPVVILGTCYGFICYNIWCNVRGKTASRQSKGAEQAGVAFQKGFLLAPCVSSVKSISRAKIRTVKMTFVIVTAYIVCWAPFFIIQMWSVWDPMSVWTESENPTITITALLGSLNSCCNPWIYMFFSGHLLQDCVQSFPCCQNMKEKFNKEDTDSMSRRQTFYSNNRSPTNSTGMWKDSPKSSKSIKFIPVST

Row | SMILES | IC50 (human V1a receptor) | ratio IC50 hV2/hV1a (human V1a receptor) | IC50 (human V2 receptor)
1 | CCOc1ccccc1-n1nc(Cn2nc(-c3ccc(Cl)cc3)n(C[C@H](O)C(F)(F)F)c2=O)nc1C(C)(F)F [Example 67, 5-(4-Chlorophenyl)-2-{[5-(1,1-difluoroethyl)-1-(2-ethoxyphenyl)-1H-1,2,4-triazol-3-yl]methyl}-4-[(2S)-3,3,3-trifluoro-2-hydroxypropyl]-2,4-dihydro-3H-1,2,4-triazol-3-one] | 1.8 nM | 4.4 | 7.85 nM
2 | CC(F)(F)c1nc(Cn2nc(-c3ccc(Cl)cc3)n(C[C@H](O)C(F)(F)F)c2=O)nn1-c1c(Cl)cccc1Cl [Example 68, 5-(4-Chlorophenyl)-2-{[1-(2,6-dichlorophenyl)-5-(1,1-difluoroethyl)-1H-1,2,4-triazol-3-yl]methyl}-4-[(2S)-3,3,3-trifluoro-2-hydroxypropyl]-2,4-dihydro-3H-1,2,4-triazol-3-one] | 3.3 nM | 1.3 | 4.23 nM
3 | CC(F)(F)c1nc(Cn2nc(-c3ccc(Cl)cc3)n(C[C@H](O)C(F)(F)F)c2=O)nn1-c1c(F)cccc1Cl [Example 69, 2-{[1-(2-Chloro-6-fluorophenyl)-5-(1,1-difluoroethyl)-1H-1,2,4-triazol-3-yl]methyl}-5-(4-chlorophenyl)-4-[(2S)-3,3,3-trifluoro-2-hydroxypropyl]-2,4-dihydro-3H-1,2,4-triazol-3-one] | 2.95 nM | 2.3 | 6.9 nM
4 | CC(F)(F)c1nc(Cn2nc(-c3ccc(Cl)cc3)n(C[C@H](O)C(F)(F)F)c2=O)nn1-c1c(F)cccc1F [Example 70, 5-(4-Chlorophenyl)-2-{[5-(1,1-difluoroethyl)-1-(2,6-difluorophenyl)-1H-1,2,4-triazol-3-yl]methyl}-4-[(2S)-3,3,3-trifluoro-2-hydroxypropyl]-2,4-dihydro-3H-1,2,4-triazol-3-one] | 1.75 nM | 1.3 | 2.27 nM
5 | Cc1cccc(C)c1-n1nc(Cn2nc(-c3ccc(Cl)cc3)n(C[C@H](O)C(F)(F)F)c2=O)nc1C(C)(F)F [Example 71, 5-(4-Chlorophenyl)-2-{[5-(1,1-difluoroethyl)-1-(2,6-dimethylphenyl)-1H-1,2,4-triazol-3-yl]methyl}-4-[(2S)-3,3,3-trifluoro-2-hydroxypropyl]-2,4-dihydro-3H-1,2,4-triazol-3-one] | 5.3 nM | 0.8 | 4.27 nM
6 | CC(C)c1ccccc1-n1nc(Cn2nc(-c3ccc(Cl)cc3)n(C[C@H](O)C(F)(F)F)c2=O)nc1C(C)(F)F [Example 72, 5-(4-Chlorophenyl)-2-({5-(1,1-difluoroethyl)-1-[2-(propan-2-yl)phenyl]-1H-1,2,4-triazol-3-yl}methyl)-4-[(2S)-3,3,3-trifluoro-2-hydroxypropyl]-2,4-dihydro-3H-1,2,4-triazol-3-one] | 31 nM | 1.1 | 34.7 nM
7 | CCc1cccc(C)c1-n1nc(Cn2nc(-c3ccc(Cl)cc3)n(C[C@H](O)C(F)(F)F)c2=O)nc1C(C)(F)F [Example 73, 5-(4-Chlorophenyl)-2-{[5-(1,1-difluoroethyl)-1-(2-ethyl-6-methylphenyl)-1H-1,2,4-triazol-3-yl]methyl}-4-[(2S)-3,3,3-trifluoro-2-hydroxypropyl]-2,4-dihydro-3H-1,2,4-triazol-3-one] | 41 nM | 0.3 | 11.9 nM
8 | CSc1ccccc1-n1nc(Cn2nc(-c3ccc(Cl)cc3)n(C[C@H](O)C(F)(F)F)c2=O)nc1C(C)(F)F [Example 74, 5-(4-Chlorophenyl)-2-({5-(1,1-difluoroethyl)-1-[2-(methylsulfanyl)phenyl]-1H-1,2,4-triazol-3-yl}methyl)-4-[(2S)-3,3,3-trifluoro-2-hydroxypropyl]-2,4-dihydro-3H-1,2,4-triazol-3-one] | 1.4 nM | 0.7 | 0.98 nM
9 | O=c1n(Cc2nc(C(F)(F)C3(O)CCCC3)n(-c3ccccc3Cl)n2)nc(-c2ccc(Cl)cc2)n1C[C@H](O)C(F)(F)F [Example 75, 5-(4-Chlorophenyl)-2-({1-(2-chlorophenyl)-5-[difluoro(1-hydroxycyclopentyl)methyl]-1H-1,2,4-triazol-3-yl}methyl)-4-[(2S)-3,3,3-trifluoro-2-hydroxypropyl]-2,4-dihydro-3H-1,2,4-triazol-3-one] | 0.85 nM | 6.4 | 5.4 nM
10 | NCC(F)(F)c1nc(Cn2nc(-c3ccc(Cl)cc3)n(C[C@H](O)C(F)(F)F)c2=O)nn1-c1ccccc1Cl.O=CO [Example 76, 2-{[5-(2-Amino-1,1-difluoroethyl)-1-(2-chlorophenyl)-1H-1,2,4-triazol-3-yl]methyl}-5-(4-chlorophenyl)-4-[(2S)-3,3,3-trifluoro-2-hydroxypropyl]-2,4-dihydro-3H-1,2,4-triazol-3-one] | 0.91 nM | 3.5 | 3.15 nM
11 | O=c1n(Cc2nc(C(F)(F)C3CCOCC3)n(-c3ccccc3Cl)n2)nc(-c2ccc(Cl)cc2)n1C[C@H](O)C(F)(F)F [Example 77, 5-(4-Chlorophenyl)-2-({1-(2-chlorophenyl)-5-[difluoro(tetrahydro-2H-pyran-4-yl)methyl]-1H-1,2,4-triazol-3-yl}methyl)-4-[(2S)-3,3,3-trifluoro-2-hydroxypropyl]-2,4-dihydro-3H-1,2,4-triazol-3-one] | 1.4 nM | 5.0 | 7.03 nM
12 | O=c1n(Cc2nc(C(F)(F)F)n(-c3cccc(F)c3)n2)nc(-c2ccc(Cl)cc2)n1C[C@H](O)C(F)(F)F [Example 78, 5-(4-Chlorophenyl)-2-{[1-(3-fluorophenyl)-5-(trifluoromethyl)-1H-1,2,4-triazol-3-yl]methyl}-4-[(2S)-3,3,3-trifluoro-2-hydroxypropyl]-2,4-dihydro-3H-1,2,4-triazol-3-one] | 49.6 nM | 0.1 | 4.75 nM
13 | O=c1n(Cc2nc(C(F)(F)F)n(-c3ccccc3Cl)n2)nc(-c2ccc(Cl)cc2)n1C[C@H](O)C(F)(F)F [Example 79, 5-(4-Chlorophenyl)-2-{[1-(2-chlorophenyl)-5-(trifluoromethyl)-1H-1,2,4-triazol-3-yl]methyl}-4-[(2S)-3,3,3-trifluoro-2-hydroxypropyl]-2,4-dihydro-3H-1,2,4-triazol-3-one] | 0.78 nM | 3.3 | 2.58 nM
